Like-named read-outs stand apart in the source and are kept apart here.
Key:
[1] = tested on: MCF-7 breast cancer cell line; assay: MTT cytotoxicity assay, MCF-7; assay type: cell-based, human
Description: (§1) The newly synthesized compounds were evaluated for their in vitro anticancer potential against MCF-7 breast cancer cell lines by MTT assay using cisplatin as a reference standard. The 50% inhibitory concentration (IC50) values were determined for these compounds. In addition, the cytotoxic activities of compounds 5c, 5e, 5k, and 5m were assessed against healthy NIH3T3 [25] cells, in order to express the selectivity toward carcinogenic cells. The IC50 values of test compounds were determined as the mean IC50 of 4 independent experiments.
(§2) The anticancer activity of compounds 5a–5p were screened according to the MTT assays. The MTT assays were performed as previously described. Cisplatin was used as the reference drug for the MCF7 cell line in the MTT assays.

NIH3T3 cells = assay: MTT cytotoxicity assay, healthy NIH3T3 cells; assay type: cell-based
Description: as §1, §2

[2] = target: T1, recombinant human aromatase (Homo sapiens, UniProt P11511); assay: Fluorometric aromatase (CYP19A) inhibitor screening kit (Bio Vision); assay type: biochemical; settings: read-out: IC50 Aromatase Inhibition
T1 construct: purchased Bio Vision
T1 sequence (P11511 1-503): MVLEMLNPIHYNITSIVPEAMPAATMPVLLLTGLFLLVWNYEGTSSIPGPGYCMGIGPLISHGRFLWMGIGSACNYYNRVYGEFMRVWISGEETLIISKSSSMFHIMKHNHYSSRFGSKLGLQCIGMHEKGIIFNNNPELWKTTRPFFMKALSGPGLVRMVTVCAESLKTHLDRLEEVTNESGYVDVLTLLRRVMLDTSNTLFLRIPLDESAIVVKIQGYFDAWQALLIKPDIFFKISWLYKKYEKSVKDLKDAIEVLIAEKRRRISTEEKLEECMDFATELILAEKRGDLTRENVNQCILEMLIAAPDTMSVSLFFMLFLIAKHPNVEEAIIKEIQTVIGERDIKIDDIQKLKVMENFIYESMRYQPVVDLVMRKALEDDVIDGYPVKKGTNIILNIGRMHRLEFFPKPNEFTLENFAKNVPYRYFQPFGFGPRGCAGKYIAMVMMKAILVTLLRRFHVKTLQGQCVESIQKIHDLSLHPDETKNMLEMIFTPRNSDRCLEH

[3] = fluorometric kit, letrozole as reference

Structure (SMILES) | IC50 ([1]; n = 4) | further results
Clc1ccc(C2=Nn3c(nnc3-c3ccc(-c4nc5ccccc5[nH]4)cc3)SC2)c(Cl)c1 [Compound 5h, 3-(4-(1H-benzo[d]imidazol-2-yl)phenyl)-6-(2,4-dichlorophenyl)-7H-[1,2,4]triazole[3,4-b] [1,3,4] thiadiazine] | 0.342 ± 0.017 µM | 
Fc1ccc(C2=Nn3c(nnc3-c3ccc(-c4nc5cc(Cl)ccc5[nH]4)cc3)SC2)cc1 [Compound 5k, 3-(4-(5-chloro-1H-benzo[d]imidazol-2-yl)phenyl)-6-(4-fluorophenyl)-7H-[1,2,4]triazole [3,4-b][1,3,4] thiadiazine] | 0.11 ± 0.005 µM | IC50 (NIH3T3 cells; n = 4): 77.6 ± 2.1 µM; IC50 [2, 3]: 2.28 ± 0.106 µM
Fc1ccc(C2=Nn3c(nnc3-c3ccc(-c4nc5ccccc5[nH]4)cc3)SC2)c(F)c1 [Compound 5g, 3-(4-(1H-benzo[d]imidazol-2-yl)phenyl)-6-(2,4-difluorohenyl)-7H-[1,2,4]triazole [3,4-b][1,3,4] thiadiazine] | 0.245 ± 0.004 µM | 
Clc1ccc2[nH]c(-c3ccc(-c4nnc5n4N=C(c4ccc(Br)cc4)CS5)cc3)nc2c1 [Compound 5n, 3-(4-(5-chloro-1H-benzo[d]imidazol-2-yl)phenyl)-6-(4-bromophenyl)-7H-[1,2,4]triazole [3,4-b][1,3,4] thiadiazine] | 0.264 ± 0.011 µM | 
Cc1ccc(C2=Nn3c(nnc3-c3ccc(-c4nc5cc(Cl)ccc5[nH]4)cc3)SC2)cc1 [Compound 5l, 3-(4-(5-chloro-1H-benzo[d]imidazol-2-yl)phenyl)-6-(4-methylphenyl)-7H-[1,2,4]triazole [3,4-b][1,3,4] thiadiazine] | 0.352 ± 0.019 µM | 
Fc1ccc(C2=Nn3c(nnc3-c3ccc(-c4nc5ccccc5[nH]4)cc3)SC2)cc1 [Compound 5c, 3-(4-(1H-benzo[d]imidazol-2-yl)phenyl)-6-(4-fluorophenyl)-7H-[1,2,4]triazole[3,4-b][1,3,4] thiadiazine] | 0.119 ± 0.005 µM | IC50 (NIH3T3 cells; n = 4): 81.8 ± 2.4 µM; IC50 [2, 3]: 1.72 ± 0.042 µM
N#Cc1ccc(C2=Nn3c(nnc3-c3ccc(-c4nc5ccccc5[nH]4)cc3)SC2)cc1 [Compound 5e, 3-(4-(1H-benzo[d]imidazol-2-yl)phenyl)-6-(4-cyanophenyl)-7H-[1,2,4]triazole[3,4-b][1,3,4] thiadiazine] |  | IC50 ([1]; Homo sapiens, MCF7, n = 4): 0.016 ± 0.001 µM; IC50 (NIH3T3 cells; Mus musculus, NIH3T3, n = 4): ≥ 1000 µM; IC50 [2]: 0.032 ± 0.001 µM; melting point: 259.3 to 263.1 °C
Clc1ccc2[nH]c(-c3ccc(-c4nnc5n4N=C(c4ccccc4)CS5)cc3)nc2c1 [Compound 5i, 3-(4-(5-chloro-1H-benzo[d]imidazol-2-yl)phenyl)-6-phenyl-7H-[1,2,4]triazole[3,4-b][1,3,4] thiadiazine] | 0.205 ± 0.005 µM | 
Clc1ccc(C2=Nn3c(nnc3-c3ccc(-c4nc5cc(Cl)ccc5[nH]4)cc3)SC2)c(Cl)c1 [Compound 5p, 3-(4-(5-chloro-1H-benzo[d]imidazol-2-yl)phenyl)-6-(2,4-dichlorophenyl)-7H-[1,2,4]triazole [3,4-b][1,3,4] thiadiazine] | 0.147 ± 0.001 µM | 
c1ccc(C2=Nn3c(nnc3-c3ccc(-c4nc5ccccc5[nH]4)cc3)SC2)cc1 [Compound 5a, 3-(4-(1H-benzo[d]imidazol-2-yl)phenyl)-6-phenyl-7H-[1,2,4]triazole[3,4-b][1,3,4] thiadiazine] | 0.142 ± 0.007 µM | 
Clc1ccc(C2=Nn3c(nnc3-c3ccc(-c4nc5cc(Cl)ccc5[nH]4)cc3)SC2)cc1 [Compound 5j, 3-(4-(5-chloro-1H-benzo[d]imidazol-2-yl)phenyl)-6-(4-chlorophenyl)-7H-[1,2,4]triazole [3,4-b][1,3,4] thiadiazine] | 0.258 ± 0.011 µM | 
Cc1ccc(C2=Nn3c(nnc3-c3ccc(-c4nc5ccccc5[nH]4)cc3)SC2)cc1 [Compound 5d, 3-(4-(1H-benzo[d]imidazol-2-yl)phenyl)-6-(4-methylphenyl)-7H-[1,2,4]triazole[3,4-b][1,3,4] thiadiazine] | 0.194 ± 0.006 µM | 
Fc1ccc(C2=Nn3c(nnc3-c3ccc(-c4nc5cc(Cl)ccc5[nH]4)cc3)SC2)c(F)c1 [Compound 5o, 3-(4-(5-chloro-1H-benzo[d]imidazol-2-yl)phenyl)-6-(2,4-difluorohenyl)-7H-[1,2,4]triazole [3,4-b][1,3,4] thiadiazine] | 0.373 ± 0.011 µM | 
N#Cc1ccc(C2=Nn3c(nnc3-c3ccc(-c4nc5cc(Cl)ccc5[nH]4)cc3)SC2)cc1 [Compound 5m, 3-(4-(5-chloro-1H-benzo[d]imidazol-2-yl)phenyl)-6-(4-cyanophenyl)-7H-[1,2,4]triazole [3,4-b][1,3,4] thiadiazine] | 0.018 ± 0.001 µM | IC50 (NIH3T3 cells; n = 4): ≥ 1000 µM; IC50 [2, 3]: 1.56 ± 0.064 µM
N.N.[Cl][Pt][Cl] [Cisplatin, reference compound] | 0.02 ± 0.009 µM | IC50 (NIH3T3 cells; n = 4): ≥ 1000 µM
Brc1ccc(C2=Nn3c(nnc3-c3ccc(-c4nc5ccccc5[nH]4)cc3)SC2)cc1 [Compound 5f, 3-(4-(1H-benzo[d]imidazol-2-yl)phenyl)-6-(4-bromophenyl)-7H-[1,2,4]triazole[3,4-b][1,3,4] thiadiazine] | 0.318 ± 0.019 µM | 

From PMC7180718, “Synthesis, Docking Studies and Biological Activity of New Benzimidazole- Triazolothiadiazine Derivatives as Aromatase Inhibitor” (Molecules, 2020)
